Molecular target: T1, ANO2 (Mus musculus, UniProt Q8CFW1)
T1 sequence (Q8CFW1 1-1002): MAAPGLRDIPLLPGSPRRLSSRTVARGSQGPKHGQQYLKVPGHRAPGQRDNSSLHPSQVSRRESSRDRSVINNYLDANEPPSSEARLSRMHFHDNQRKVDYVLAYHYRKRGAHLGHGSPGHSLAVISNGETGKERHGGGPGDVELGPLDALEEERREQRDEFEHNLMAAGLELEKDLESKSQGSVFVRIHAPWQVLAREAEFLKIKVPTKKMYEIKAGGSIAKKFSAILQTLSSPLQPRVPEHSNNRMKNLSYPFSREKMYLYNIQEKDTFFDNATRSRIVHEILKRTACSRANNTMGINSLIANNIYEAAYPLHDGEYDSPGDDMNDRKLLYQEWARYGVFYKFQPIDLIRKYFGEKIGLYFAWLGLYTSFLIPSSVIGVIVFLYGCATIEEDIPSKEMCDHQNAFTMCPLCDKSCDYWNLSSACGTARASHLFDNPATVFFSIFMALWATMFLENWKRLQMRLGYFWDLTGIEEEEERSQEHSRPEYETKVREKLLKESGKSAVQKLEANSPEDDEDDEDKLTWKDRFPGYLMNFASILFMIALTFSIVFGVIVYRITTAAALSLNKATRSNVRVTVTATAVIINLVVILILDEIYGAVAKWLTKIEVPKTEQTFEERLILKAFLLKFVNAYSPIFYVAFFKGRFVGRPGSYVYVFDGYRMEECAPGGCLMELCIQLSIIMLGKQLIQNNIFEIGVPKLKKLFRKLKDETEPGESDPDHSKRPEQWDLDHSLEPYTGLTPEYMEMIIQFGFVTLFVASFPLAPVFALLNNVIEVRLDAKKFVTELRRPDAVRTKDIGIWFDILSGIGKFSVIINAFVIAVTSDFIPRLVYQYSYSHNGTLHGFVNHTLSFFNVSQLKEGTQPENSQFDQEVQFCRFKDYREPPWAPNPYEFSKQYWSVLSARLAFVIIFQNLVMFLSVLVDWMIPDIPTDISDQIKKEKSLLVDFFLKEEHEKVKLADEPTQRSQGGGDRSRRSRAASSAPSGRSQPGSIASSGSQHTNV
Assay: Apical membrane current in FRT-ANO2 cells
Assay type: cell-based
Method: Snapwell inserts containing ANO1, ANO2 or CFTR expressing FRT cells, ENaC expressing T-84 cells or the human primary airway epithelial cells were mounted in Ussing chambers (Physiologic Instruments, San Diego, CA). To induce transcriptional ENaC induction, the polarized T84 cells were incubated with 2 mM sodium butyrate for 2 days. To increase the functional expression of ANO1, the human airway epithelial cells were treated with IL-4 (10 ng/mL) for 2 days. For T-84 and the human primary airway epithelial cells, the apical and basolateral bath were filled with HCO3^—buffered solution containing (in mM): 120 NaCl, 5 KCl, 1 MgCl2, 1 CaCl2, 10 D-glucose, 2.5 HEPES, and 25 NaHCO3 (pH 7.4). For FRT cells, the basolateral bath was filled with the HCO3^—buffered solution and the apical bath was filled with a half-Cl^- solution. In the half-Cl^- solution 65 mM NaCl in the HCO3^—buffered solution was replaced by Na-gluconate. […] ATP was applied to the apical bath solution to induce intracellular calcium increase. […] Apical membrane currents were measured with an EVC4000 Multi-Channel V/I Clamp (World Precision Instruments, Sarasota, FL) and PowerLab 4/35 (AD Instruments, Castle Hill, Australia). Data were analyzed using Labchart Pro 7 (AD Instruments). The sampling rate was 4 Hz.
ANO1 belongs to anoctamin gene family which contains ten members presenting eight-pass transmembrane segments with cytosolic N- and C-terminals. ANO2 shares a high level of amino acid homology to ANO1 (~60%) and, ANO1 and ANO2 are confirmed CaCCs. However, the roles of other family members (ANO3-ANO10) remain poorly understood and controversial. […] We investigated the effect of these inhibitors on ANO2-mediated apical membrane current in FRT-ANO2 cells.

## COc1ccccc1C=NNC(=O)COc1ccc(Cl)cc1C [Ani9, 2-(4-chloro-2-methylphenoxy)-N-[(2-methoxyphenyl)methylideneamino]-acetamide]
1 μM pretreatment
  effect on ATP-induced ANO2 current: did not affect
10 μM pretreatment
  block of ANO2 current: 10 ± 1.6%
Higher concentrations (3 and 10 μM)
  inhibitory effect on ANO2: relatively small inhibitory effect
